The values that follow come from BindingDB's records for doi:10.1016/j.ejmech.2021.113895 (University of Pisa, 2021).

A short description of the experiment: Inhibition of recombinant full length human His-tagged PDK1 expressed in Baculovirus expression system in presence of ATP measured by […].
In the case of `Cc1ccc(C(=O)N[C@@H](C(=O)Nc2ccc3c(c2)/C(=C/c2cnc[nH]2)C(=O)N3)c2ccccc2)c(=O)n1Cc1ccc(F)c(F)c1`, the IC50 turned out to be 148 nM.
For `Cc1c(Br)cc(C(=O)N[C@@H](C(=O)Nc2ccc3c(c2)/C(=C/c2cnc[nH]2)C(=O)N3)c2ccccc2)c(=O)n1Cc1ccc(F)c(F)c1`, the IC50 came out at 475 nM.
Consider `O=C(CCCNC(=O)c1cccn(Cc2ccc(F)c(F)c2)c1=O)Nc1ccc2c(c1)/C(=C/c1cnc[nH]1)C(=O)N2` [US10351548, Compound DF8], for which the IC50 was found to be 245 nM.
`O=C(CCNC(=O)c1cccn(Cc2ccc(F)c(F)c2)c1=O)Nc1ccc2c(c1)/C(=C/c1ncc[nH]1)C(=O)N2`: the IC50 worked out at 455 nM.
The value for `O=C(CCNC(=O)c1cccn(Cc2ccc(F)c(F)c2)c1=O)Nc1ccc2c(c1)/C(=C/c1cnc[nH]1)C(=O)N2` [US10351548, Compound DD21] was 103 nM.
The figure for `O=C(CCCNC(=O)c1cccn(Cc2ccc(F)c(F)c2)c1=O)Nc1ccc2c(c1)C(=Cc1cccs1)C(=O)N2` [US10351548, Compound DF9] is 5880 nM; for `O=C(CCNC(=O)c1cccn(Cc2ccc(F)c(F)c2)c1=O)Nc1ccc2c(c1)C(=Cc1cccs1)C(=O)N2` it is 1340 nM; for `Cc1c(Br)cc(C(=O)NCC(=O)Nc2ccc3c(c2)/C(=C/c2cnc[nH]2)C(=O)N3)c(=O)n1Cc1ccc(F)c(F)c1` it is 134 nM.
Take `Cc1ccc(C(=O)NCC(=O)Nc2ccc3c(c2)/C(=C/c2cnc[nH]2)C(=O)N3)c(=O)n1Cc1ccc(F)c(F)c1`: the IC50 worked out at 103 nM.
